Test results from BindingDB's records for doi:10.1021/jm030585i (Merck Research Laboratories, 2004).

What follows are compounds tested against T1, Mineralocorticoid receptor (Rattus norvegicus, UniProt P22199).
T1 sequence (P22199 whole entry): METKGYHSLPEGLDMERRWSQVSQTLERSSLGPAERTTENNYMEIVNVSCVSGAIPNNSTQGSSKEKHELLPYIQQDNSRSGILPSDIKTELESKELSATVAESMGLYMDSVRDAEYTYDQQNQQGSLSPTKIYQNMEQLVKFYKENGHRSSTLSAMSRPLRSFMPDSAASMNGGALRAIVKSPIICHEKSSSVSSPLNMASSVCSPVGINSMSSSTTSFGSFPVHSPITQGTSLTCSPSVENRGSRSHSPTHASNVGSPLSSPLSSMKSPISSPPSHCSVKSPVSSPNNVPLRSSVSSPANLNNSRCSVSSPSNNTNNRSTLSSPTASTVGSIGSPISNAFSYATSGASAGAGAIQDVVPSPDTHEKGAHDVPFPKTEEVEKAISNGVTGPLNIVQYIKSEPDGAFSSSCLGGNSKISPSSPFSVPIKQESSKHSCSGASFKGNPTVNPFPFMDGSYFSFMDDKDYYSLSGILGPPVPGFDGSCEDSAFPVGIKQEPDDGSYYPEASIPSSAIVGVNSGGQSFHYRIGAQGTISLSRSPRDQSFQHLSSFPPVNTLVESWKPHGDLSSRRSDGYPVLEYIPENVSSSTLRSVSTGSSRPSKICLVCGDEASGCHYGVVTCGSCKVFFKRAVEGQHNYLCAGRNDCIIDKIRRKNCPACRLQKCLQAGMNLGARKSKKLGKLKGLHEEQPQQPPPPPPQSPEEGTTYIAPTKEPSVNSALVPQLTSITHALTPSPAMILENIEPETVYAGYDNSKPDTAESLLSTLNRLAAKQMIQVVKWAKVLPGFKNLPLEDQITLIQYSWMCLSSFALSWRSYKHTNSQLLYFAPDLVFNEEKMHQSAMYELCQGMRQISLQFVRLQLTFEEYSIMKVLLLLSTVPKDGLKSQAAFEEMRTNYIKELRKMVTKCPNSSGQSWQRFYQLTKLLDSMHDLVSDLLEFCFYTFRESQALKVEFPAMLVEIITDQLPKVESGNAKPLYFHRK

IC50, > 5 µM:
C[C@]12Cc3cnn(-c4ccc(F)cc4)c3C=C1CCC[C@@H]2[C@](C)(O)c1ccc(F)cc1 [(1S)-1-[(4aR,5S)-1-(4-fluorophenyl)-4a-methyl-1H,4H,4aH,5H,6H,7H,8H-cyclohexa[f]indazol-5-yl]-1-(4-fluorophenyl)ethan-1-ol]
C=CCC[C@H](O)[C@H]1CCCC2=Cc3c(cnn3-c3ccc(F)cc3)C[C@@]21C [(1S)-1-[(4aR,5S)-1-(4-fluorophenyl)-4a-methyl-1H,4H,4aH,5H,6H,7H,8H-cyclohexa[f]indazol-5-yl]pent-4-en-1-ol]
COc1cc([C@H](O)[C@H]2CCCC3=Cc4c(cnn4-c4ccc(F)cc4)C[C@@]32C)cc(F)c1F [(R)-[(4aR,5S)-1-(4-fluorophenyl)-4a-methyl-1H,4H,4aH,5H,6H,7H,8H-cyclohexa[f]indazol-5-yl](3,4-difluoro-5-methoxyphenyl)methanol]
C[C@]12Cc3cnn(-c4ccc(F)cc4)c3C=C1CCC[C@@H]2[C@@H](O)c1ccccc1 [(R)-[(4aR,5S)-1-(4-fluorophenyl)-4a-methyl-1H,4H,4aH,5H,6H,7H,8H-cyclohexa[f]indazol-5-yl](phenyl)methanol]
C[C@]12Cc3cnn(-c4ccc(F)cc4)c3C=C1CCC[C@@H]2[C@@H](O)c1ccc(F)cc1 [BMCL173354 benzo[f]indazole, 6]
C[C@]12Cc3cnn(-c4ccc(F)cc4)c3C=C1CCC[C@@H]2[C@H](O)c1ccc(F)cc1 [BMCL173354 benzo[f]indazole, 7]
